The target in the assay is T1, EZH2 within the PRC2 complex (Homo sapiens, UniProt Q15910).
T1 construct: FLAG; made in house; host or cells: Sf9 cells
Briefly: EZH2 methyltransferase scintillation proximity assay (SPA) with PRC2 complex. Type of assay: biochemical. The conditions noted are these: 3H-SAM methyl transfer to Histone H3 of HeLa mononucleosomes; read-out: EZH2 pIC50 (converted). The protocol:
Compounds contained herein were evaluated for their ability to inhibit the methyltransferase activity of EZH2 within the PRC2 complex. Human PRC2 complex was prepared by co-expressing each of the 5 member proteins (FLAG-EZH2, EED, SUZ12, RbAp48, AEBP2) in Sf9 cells followed by co-purification. Enzyme activity was measured in a scintillation proximity assay (SPA) where a tritiated methyl group is transferred from 3H-SAM to a lysine residue on Histone H3 of a mononucleosome, purified from HeLa cells. Mononucleosomes were captured on SPA beads and the resulting signal is read on a ViewLux plate reader.
Part A. Compound Preparation
• 1. Prepare 10 mM stock of compounds from solid in 100% DMSO. • 2. Set up an 11-point serial dilution (1:3 dilution, top concentration 10 mM) in 100% DMSO for each test compound in a 384 well plate leaving columns 6 and 18 for DMSO controls. • 3. Dispense […] of compound from the dilution plate into reaction plates (Grenier Bio-One, 384-well, Cat #784075). Part B. Reagent Preparation Prepare the following solutions: • 1. 50 mM Tris-HCl, pH 8: Per 1 L of base buffer, combine 1 M Tris-HCl, pH 8 (50 mL) and distilled water (950 mL). • 2. […] 2× Enzyme Solution: Per 10 mL of 2× Enzyme Solution, combine 1× Assay Buffer and PRC2 complex to provide a final enzyme concentration of 10 nM. • 4. SPA Bead Suspension: Per 1 mL of SPA Bead Suspension, combine PS-PEI coated LEADSeeker beads (40 mg) and ddH2O (1 mL) to provide a final concentration of 40 mg/mL. • 5. 2× Substrate Solution: Per 10 mL of 2× Substrate Solution, combine 1× Assay Buffer (9728.55 uL), 800 ug/mL mononucleosomes (125 uL), 1 mM cold SAM (4 uL), and 7.02 uM 3H-SAM (142.45 uL; 0.55 mCi/mL) to provide a final concentration of 5 ug/mL nucleosomes, 0.2 uM cold SAM, and 0.05 uM 3H-SAM. • 6. 2.67× Quench/Bead Mixture: Per 10 mL of 2.67× Quench/Bead Mixture, combine ddH2O (9358 uL), 10 mM cold SAM (267 uL), 40 mg/mL Bead Suspension (375 uL) to provide a final concentration of 100 uM cold SAM and 0.5 mg/mL SPA beads. Part C. Assay Reaction in 384-well Grenier Bio-One Plates Compound Addition • 1. Dispense […] of 100× Compound to test wells (as noted above). • 2. Dispense […] of 100% DMSO to columns 6 & 18 for high and low controls, respectively. Assay • 1. […] Dispense 5 uL/well of 2× Enzyme Solution to columns 1-17, 19-24. • 3. Spin assay plates for ˜1 minute at 500 rpm. • 4. Stack the assay plates, covering the top plate. • 5. Incubate the compound/DMSO with the enzyme for 30 minutes at room temperature. • 6. Dispense 5 uL/well of 2× Substrate Solution to columns 1-24. • 7. Spin assay plates for ˜1 minute at 500 rpm. • 8. Stack the assay plates, covering the top plate. • 9. Incubate the assay plates at room temperature for 1 hour. Quench/Bead Addition • 1. Dispense 5 uL/well of the 3× Quench/Bead Mixture to columns 1-24. • 2. Seal the top of each assay plate with adhesive TopSeal. • 3. Spin assay plates for ˜1 minute at 500 rpm. • 4. Equilibrate the plates for >20 min. Read Plates • 1. Read the assay plates on the Viewlux Plate Reader utilizing the 613 nm emission filter with a 300 s read time. Reagent addition can be done manually or with automated liquid handler. • The final DMSO concentration in this assay is 1%. • The positive control is in column 6; negative control is in column 18. • Final starting concentration of compounds is 100 μM. Part D. Data Analysis
Percent inhibition was calculated relative to the DMSO control for each compound concentration and the resulting values were fit using standard IC50 fitting parameters within the ABASE data fitting software package.
(Scintillation proximity formats need no separation of bound from free tracer.)

T1 sequence (Q15910 whole entry): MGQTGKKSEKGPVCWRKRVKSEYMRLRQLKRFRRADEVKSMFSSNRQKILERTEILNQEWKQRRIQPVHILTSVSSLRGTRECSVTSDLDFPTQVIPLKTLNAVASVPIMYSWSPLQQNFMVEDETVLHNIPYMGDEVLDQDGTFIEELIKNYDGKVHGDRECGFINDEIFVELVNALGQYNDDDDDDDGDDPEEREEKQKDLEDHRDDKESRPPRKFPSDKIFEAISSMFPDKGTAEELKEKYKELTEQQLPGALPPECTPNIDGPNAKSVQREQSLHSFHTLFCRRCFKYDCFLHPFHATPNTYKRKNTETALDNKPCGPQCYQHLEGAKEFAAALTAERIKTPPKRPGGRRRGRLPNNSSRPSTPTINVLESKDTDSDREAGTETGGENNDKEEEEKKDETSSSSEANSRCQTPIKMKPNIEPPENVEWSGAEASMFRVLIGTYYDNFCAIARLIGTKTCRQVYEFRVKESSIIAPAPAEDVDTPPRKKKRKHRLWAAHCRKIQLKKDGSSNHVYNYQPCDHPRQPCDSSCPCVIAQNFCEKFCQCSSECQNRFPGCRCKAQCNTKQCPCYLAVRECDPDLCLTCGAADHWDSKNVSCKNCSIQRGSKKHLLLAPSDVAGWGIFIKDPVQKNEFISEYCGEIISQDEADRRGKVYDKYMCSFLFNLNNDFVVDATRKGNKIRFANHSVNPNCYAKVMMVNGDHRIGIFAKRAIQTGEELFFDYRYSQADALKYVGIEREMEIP
T1 sequence (O75530 whole entry partner): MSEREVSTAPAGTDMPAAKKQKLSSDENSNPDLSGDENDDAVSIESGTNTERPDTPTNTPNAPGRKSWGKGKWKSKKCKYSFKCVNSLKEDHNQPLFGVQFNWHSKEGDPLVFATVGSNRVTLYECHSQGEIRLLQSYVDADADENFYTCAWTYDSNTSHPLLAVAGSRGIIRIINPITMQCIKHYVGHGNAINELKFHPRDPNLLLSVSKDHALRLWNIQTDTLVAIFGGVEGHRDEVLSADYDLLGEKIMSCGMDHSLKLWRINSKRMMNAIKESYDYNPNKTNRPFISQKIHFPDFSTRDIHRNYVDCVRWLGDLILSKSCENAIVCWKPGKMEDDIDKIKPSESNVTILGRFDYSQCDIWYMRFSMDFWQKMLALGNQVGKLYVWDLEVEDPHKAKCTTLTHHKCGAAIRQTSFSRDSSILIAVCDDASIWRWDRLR
T1 sequence (Q15022 whole entry partner): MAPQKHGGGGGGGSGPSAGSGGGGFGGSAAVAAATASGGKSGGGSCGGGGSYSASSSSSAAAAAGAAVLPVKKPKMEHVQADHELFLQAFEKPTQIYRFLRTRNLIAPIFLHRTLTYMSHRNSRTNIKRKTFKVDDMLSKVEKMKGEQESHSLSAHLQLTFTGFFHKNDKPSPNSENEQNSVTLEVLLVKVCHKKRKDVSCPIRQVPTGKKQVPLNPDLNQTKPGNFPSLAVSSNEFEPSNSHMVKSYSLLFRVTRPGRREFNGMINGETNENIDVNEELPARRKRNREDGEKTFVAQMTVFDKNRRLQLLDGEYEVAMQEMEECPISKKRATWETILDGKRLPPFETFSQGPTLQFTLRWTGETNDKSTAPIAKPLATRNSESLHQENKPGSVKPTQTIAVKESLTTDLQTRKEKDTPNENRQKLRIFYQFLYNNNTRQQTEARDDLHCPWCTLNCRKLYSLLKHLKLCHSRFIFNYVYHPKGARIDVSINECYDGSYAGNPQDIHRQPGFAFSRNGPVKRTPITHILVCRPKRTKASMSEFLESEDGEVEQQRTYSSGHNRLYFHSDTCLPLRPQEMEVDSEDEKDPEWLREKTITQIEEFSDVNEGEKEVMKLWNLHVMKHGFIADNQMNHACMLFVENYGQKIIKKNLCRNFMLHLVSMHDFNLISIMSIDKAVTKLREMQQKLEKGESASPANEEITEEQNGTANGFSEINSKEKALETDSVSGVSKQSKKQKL
T1 sequence (Q09028 whole entry partner): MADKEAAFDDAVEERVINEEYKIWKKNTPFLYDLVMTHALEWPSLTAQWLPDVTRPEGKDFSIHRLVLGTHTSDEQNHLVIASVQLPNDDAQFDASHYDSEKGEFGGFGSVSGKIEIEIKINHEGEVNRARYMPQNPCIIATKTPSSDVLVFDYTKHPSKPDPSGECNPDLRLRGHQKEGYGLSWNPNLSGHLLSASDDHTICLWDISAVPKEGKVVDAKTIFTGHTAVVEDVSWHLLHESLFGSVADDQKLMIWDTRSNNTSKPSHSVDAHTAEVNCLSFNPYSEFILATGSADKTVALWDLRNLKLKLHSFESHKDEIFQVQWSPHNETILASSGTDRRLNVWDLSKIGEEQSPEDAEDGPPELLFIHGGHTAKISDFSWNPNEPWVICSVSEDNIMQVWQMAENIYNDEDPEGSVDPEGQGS
T1 sequence (Q6ZN18 whole entry partner): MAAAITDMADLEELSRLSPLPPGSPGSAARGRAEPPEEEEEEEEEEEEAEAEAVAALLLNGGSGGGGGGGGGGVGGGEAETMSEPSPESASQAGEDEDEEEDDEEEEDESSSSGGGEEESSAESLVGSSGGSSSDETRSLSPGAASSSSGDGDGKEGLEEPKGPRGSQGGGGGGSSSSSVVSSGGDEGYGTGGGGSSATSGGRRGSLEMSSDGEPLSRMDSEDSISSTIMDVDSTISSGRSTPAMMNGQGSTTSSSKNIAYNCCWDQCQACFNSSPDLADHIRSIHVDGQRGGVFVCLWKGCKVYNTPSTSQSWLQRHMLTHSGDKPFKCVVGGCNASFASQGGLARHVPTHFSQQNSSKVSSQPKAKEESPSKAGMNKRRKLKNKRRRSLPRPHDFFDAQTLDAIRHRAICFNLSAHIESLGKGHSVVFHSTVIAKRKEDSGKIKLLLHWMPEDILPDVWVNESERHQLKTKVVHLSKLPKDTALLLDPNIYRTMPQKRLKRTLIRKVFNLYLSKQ

In the case of `Cc1cc(C)c(CNC(=O)c2cc(-c3ccc(CO)nc3)cc3c2c(C)cn3C(C)C)c(=O)[nH]1` [Example 359, N-[(4,6-dimethyl-2-oxo-1,2-dihydro-3-pyridinyl)methyl]-6-[6-(hydroxymethyl)-3-pyridinyl]-3-methyl-1-(1-methylethyl)-1H-indole-4-carboxamide], the IC50 was 0.0589 µM. Take `Cc1cc(C)c(CNC(=O)c2cc(C3COC3)cc3c2c(C)cn3C(C)C)c(=O)[nH]1` [Example 360, N-[(4,6-dimethyl-2-oxo-1,2-dihydro-3-pyridinyl)methyl]-3-methyl-1-(1-methylethyl)-6-(3-oxetanyl)-1H-indole-4-carboxamide]: the IC50 was 0.288 µM.

For the origin of these results see patent US8975291B2, “Indoles” (GlaxoSmithKline LLC, priority 2010, dated 2015).
